From publication PMC8381290 (Journal of medicinal chemistry, 2021)

Columns and labels:
[1] = assay type: in vivo, mouse; conditions: for accumulation in the eye compared with emixustat / distribution within ocular tissue: single 380 nmol i.p. dose
[2] = 3 h after single 380 nmol i.p. dose
[3] = molecular target: T1, RPE65 (Bos taurus, UniProt Q28175); experiment: RPE65 retinoid isomerase activity assay; conditions: ratio of IC50 values
[4] = molecular target: T1, RPE65; conditions: RPE65 inhibition; cited from earlier work

T1 sequence (Q28175 whole entry): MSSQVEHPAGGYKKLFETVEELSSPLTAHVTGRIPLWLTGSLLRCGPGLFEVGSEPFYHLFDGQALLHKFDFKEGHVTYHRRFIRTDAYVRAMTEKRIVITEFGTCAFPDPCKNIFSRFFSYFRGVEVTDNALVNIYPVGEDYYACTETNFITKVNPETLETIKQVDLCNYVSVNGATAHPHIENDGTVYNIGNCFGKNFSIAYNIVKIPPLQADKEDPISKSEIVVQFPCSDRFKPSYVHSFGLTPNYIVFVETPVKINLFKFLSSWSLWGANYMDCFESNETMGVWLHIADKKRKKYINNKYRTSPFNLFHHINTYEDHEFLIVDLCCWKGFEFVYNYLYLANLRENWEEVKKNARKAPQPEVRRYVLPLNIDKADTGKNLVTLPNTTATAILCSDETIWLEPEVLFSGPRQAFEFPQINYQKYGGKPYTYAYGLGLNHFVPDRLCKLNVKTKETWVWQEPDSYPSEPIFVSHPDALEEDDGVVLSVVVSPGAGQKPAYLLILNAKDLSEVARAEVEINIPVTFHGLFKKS

Row | accumulation in the eye compared with emixustat [1] | initial plasma (serum) level [2] | Structure (SMILES) | distribution within ocular tissue [1] | other results
1 | accumulate more | – | [2H]C([2H])(N)CC(O)c1cccc(OCC2CCC(F)(F)CC2)c1 (stereo not shown) [Compound 59, 3-Amino-1-(3-((4,4-difluorocyclohexyl)methoxy)phenyl)propan-3,3-d2-1-ol] | – | –
2 | – | highest initial plasma levels | CCCC(CCC)COc1cc([C@H](O)CCN)ccc1F [Compound 24, (R)-3-Amino-1-(4-fluoro-3-((2-propylpentyl)oxy)phenyl)propan-1-ol] | poorest distribution within ocular tissue | inhibitory potency relative to racemic emixustat [3]: 3 times
3 | – | highest initial plasma levels | NCCC(O)c1ccc(F)c(OCC2CCCCC2)c1 (stereo not shown) [Compound 49, 3-Amino-1-(3-(cyclohexylmethoxy)-4-fluorophenyl)propan-1-ol] | poorest distribution within ocular tissue | –
4 | accumulate more | – | NCCC(O)c1cccc(OCC2CCC(F)(F)CC2)c1 (stereo not shown) [Compound 57, 3-Amino-1-(3-((4,4-difluorocyclohexyl)methoxy)phenyl) propan-1-ol] | – | eye amount relative to compounds 24 and 49 ([1]; day 7 after single i.p. dose): 10 times; eye amount relative to emixustat ([1]; day 7 after single i.p. dose): 5 times
5 | – | – | CCCC(CCC)COc1cccc([C@H](O)CCN)c1 [(R)-MB-004] | – | IC50 [4]: 106 ± 16 nM
